Test results taken from US12606561B2, “Substituted pyrazolo[1,5-a][1,3,5]triazines as CDK inhibitors” (QURIENT CO., LTD., priority 2018, dated 2026).

Key:
Assay type in all cases: biochemical
CDK1/Cyclin B = molecular target: T1, CDK1/Cyclin B (Homo sapiens, UniProt P06493); test: Enzymatic assay for CDK1 (LANCE Ultra kinase assay, FRET based); settings: ATP at Km; read-out: CDK1 enzymatic activity IC50
T1 construct: purchased Invitrogen PR4768C
Experimental: (§1) Enzymatic Binding Assay Protocol for CDK1, CDK2, CDK5 and CDK7
(§2) Inhibition activity of the respective compound on CDK kinase under Km value of ATP was tested in FRET based The LANCE® Ultra kinase assay (Perkin Elmer), which uses a ULight™-labeled peptide substrate and an appropriate Europium-labeled anti-phospho-antibody. […] After 1 min centrifugation at 1000 rpm, purified CDKs/Cyclin complex were added with the following concentrations respectively. […] Data were analyzed using XL Fit software.

CDK2/Cyclin A = molecular target: T2, CDK2/Cyclin A (Homo sapiens, UniProt P24941); test: Enzymatic assay for CDK2 (LANCE Ultra kinase assay, FRET based); settings: ATP at Km
T2 construct: purchased Invitrogen PV6290
Experimental: as §1
(§3) Inhibition activity of the respective compound on CDK kinase under Km value of ATP was tested in FRET based The LANCE® Ultra kinase assay (Perkin Elmer), which uses a ULight™-labeled peptide substrate and an appropriate Europium-labeled anti-phospho-antibody. Test compounds were made with DMSO solutions, and then 4-fold serial dilutions for 8 doses were prepared using automated liquid handler (POD™ 810, Labcyte) and 80 nL/well of diluted compound solutions were added into the 384-well plates (Greiner, Cat #784075). And then 68 nM of ULight-MBP peptide (Perkin Elmer, Cat #TRF0109-M) and 5 ul/well of ATP (Sigma, Cat #A7699) were added to the plate. After 1 min centrifugation at 1000 rpm, purified CDKs/Cyclin complex were added with the following concentrations respectively. 24 uM for CDK1/Cyclin B (Invitrogen, Cat #PR4768C), 22 uM for CDK2/Cyclin A (Invitrogen, Cat #PV6290), 10 uM for CDK5/p25 (Invitrogen, Cat #PR8543B) and […] for CDK7/Cyclin H/MNAT1 (Invitrogen, Cat #PR6749B) were added to each corresponding plate for CDK1, CDK2, CDK5 and CDK7. Incubate at 23° C. for 60 min and then Eu-labeled anti-phospho-Myelin Basic Protein (PE, Cat #TRF0201-M) and EDTA (Invitrogen, Cat #15575038) mixture in Lance Detection Buffer (Perkin Elmer, Cat #CR97100) was added in each well. After additional incubation at 23° C. for 60 min, test articles were measured the fluorescence using Envision leader (Perkin Elmer, USA) [Laser as excitation light; […] as the first and the second emission filter]. Data were analyzed using XL Fit software.

CDK7/Cyclin H/MNAT1 = molecular target: T3, CDK7/Cyclin H/MNAT1 (Homo sapiens, UniProt P50613); test: Enzymatic assay for CDK7 (LANCE Ultra kinase assay, FRET based); settings: for IC50: ATP at Km
T3 construct: purchased Invitrogen PR6749B
T3 sequence (P50613 whole entry): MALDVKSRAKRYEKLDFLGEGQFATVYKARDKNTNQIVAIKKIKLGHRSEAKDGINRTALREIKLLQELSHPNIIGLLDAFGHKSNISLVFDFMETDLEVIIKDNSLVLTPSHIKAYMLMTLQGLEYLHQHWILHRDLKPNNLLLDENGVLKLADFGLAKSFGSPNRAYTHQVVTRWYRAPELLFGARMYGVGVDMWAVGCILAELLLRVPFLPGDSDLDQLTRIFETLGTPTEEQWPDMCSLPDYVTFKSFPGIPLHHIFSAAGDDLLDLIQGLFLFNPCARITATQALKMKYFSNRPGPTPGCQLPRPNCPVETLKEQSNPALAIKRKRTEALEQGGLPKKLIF
T3 sequence (P51946 whole entry partner): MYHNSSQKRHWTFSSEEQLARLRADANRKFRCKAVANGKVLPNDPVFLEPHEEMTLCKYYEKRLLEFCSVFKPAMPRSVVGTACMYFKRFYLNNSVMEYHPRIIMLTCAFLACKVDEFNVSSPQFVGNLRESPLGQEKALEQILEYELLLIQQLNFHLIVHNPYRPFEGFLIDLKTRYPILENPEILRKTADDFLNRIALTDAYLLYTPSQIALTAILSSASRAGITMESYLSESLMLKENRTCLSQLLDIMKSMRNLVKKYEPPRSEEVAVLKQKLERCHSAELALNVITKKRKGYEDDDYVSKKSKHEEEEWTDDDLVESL
T3 sequence (P51948 whole entry partner): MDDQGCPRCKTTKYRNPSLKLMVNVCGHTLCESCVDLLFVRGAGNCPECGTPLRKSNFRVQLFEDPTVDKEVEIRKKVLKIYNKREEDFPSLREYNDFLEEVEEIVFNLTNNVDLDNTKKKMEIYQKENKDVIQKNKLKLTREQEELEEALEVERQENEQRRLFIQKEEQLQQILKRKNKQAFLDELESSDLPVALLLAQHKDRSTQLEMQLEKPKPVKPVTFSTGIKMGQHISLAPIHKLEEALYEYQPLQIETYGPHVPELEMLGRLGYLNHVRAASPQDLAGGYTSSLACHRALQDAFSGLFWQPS
Experimental: as §1, §2

CDK5/p25 = molecular target: T4, CDK5/p25 (Homo sapiens, UniProt Q00535); test: Enzymatic assay for CDK5 (LANCE Ultra kinase assay, FRET based); settings: ATP at Km
T4 construct: purchased Invitrogen PR8543B
T4 sequence (Q00535 whole entry): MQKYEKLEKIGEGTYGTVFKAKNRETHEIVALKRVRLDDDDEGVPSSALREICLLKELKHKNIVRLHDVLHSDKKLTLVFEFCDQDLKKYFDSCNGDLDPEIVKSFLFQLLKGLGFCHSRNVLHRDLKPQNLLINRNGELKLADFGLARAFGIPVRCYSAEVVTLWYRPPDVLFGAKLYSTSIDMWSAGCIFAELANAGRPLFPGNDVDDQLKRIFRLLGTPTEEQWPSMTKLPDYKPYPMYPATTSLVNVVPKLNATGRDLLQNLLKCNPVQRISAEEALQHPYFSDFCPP
T4 sequence (Q15078 99-307 partner limits assumed): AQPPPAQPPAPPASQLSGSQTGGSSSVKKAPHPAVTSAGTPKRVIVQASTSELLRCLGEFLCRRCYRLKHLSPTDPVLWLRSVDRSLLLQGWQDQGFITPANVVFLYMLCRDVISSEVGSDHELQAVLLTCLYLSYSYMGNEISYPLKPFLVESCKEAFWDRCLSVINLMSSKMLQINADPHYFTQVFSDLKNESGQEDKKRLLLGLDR
Experimental: as §1, §3

T1 sequence (P06493 whole entry): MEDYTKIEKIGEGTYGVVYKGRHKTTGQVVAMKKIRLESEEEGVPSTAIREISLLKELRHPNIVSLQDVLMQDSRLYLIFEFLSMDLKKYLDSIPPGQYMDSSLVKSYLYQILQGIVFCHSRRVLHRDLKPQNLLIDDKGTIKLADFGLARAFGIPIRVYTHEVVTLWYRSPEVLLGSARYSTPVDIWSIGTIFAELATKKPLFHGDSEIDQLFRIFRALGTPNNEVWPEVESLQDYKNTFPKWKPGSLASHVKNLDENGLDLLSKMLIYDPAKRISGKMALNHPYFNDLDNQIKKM
T1 sequence (P14635 whole entry partner): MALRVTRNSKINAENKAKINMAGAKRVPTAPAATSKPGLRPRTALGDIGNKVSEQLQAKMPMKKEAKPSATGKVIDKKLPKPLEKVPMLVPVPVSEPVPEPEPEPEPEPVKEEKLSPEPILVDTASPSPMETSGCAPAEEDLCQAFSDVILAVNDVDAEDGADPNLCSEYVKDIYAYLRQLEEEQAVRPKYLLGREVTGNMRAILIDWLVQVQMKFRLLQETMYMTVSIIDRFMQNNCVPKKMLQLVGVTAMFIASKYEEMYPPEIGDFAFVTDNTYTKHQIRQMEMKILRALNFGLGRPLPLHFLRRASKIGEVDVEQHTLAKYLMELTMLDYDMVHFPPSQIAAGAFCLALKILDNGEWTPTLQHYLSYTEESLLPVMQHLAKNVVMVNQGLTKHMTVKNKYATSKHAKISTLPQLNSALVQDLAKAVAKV

SMILES | IC50 (CDK1/Cyclin B) | IC50 (CDK2/Cyclin A) | IC50 (CDK7/Cyclin H/MNAT1) | CDK1/CDK7: Selectivity of CDK7 inhibition over CDK1 inhibition (CDK7/Cyclin H/MNAT1) | CDK2/CDK7: Selectivity of CDK7 inhibition over CDK2 inhibition (CDK7/Cyclin H/MNAT1) | CDK5/CDK7: Selectivity of CDK7 inhibition over CDK5 inhibition (CDK7/Cyclin H/MNAT1) | IC50 (CDK5/p25)
CN[C@H]1CC[C@H](Nc2nc(NCc3ccccc3-c3nccc4cc(NC(=O)/C=C/CN(C)C)ccc34)n3ncc(C(C)C)c3n2)CC1 [Compound 145] | > 1000 nM | > 1000 nM | < 100 nM | A (A indicates [fold] > 500) | A (A indicates [fold] > 500) | A (A indicates [fold] > 500) | > 1000 nM
C=C(F)C(=O)Nc1ccc2c(-c3ccccc3CNc3nc(NC[C@@H]4CNCCO4)nc4c(C(C)C)cnn34)nccc2c1 [Compound 149] | > 1000 nM | > 1000 nM | < 100 nM | B (B indicates 50 < [fold] ≤ 500) | C (C indicates [fold] ≤ 50) | B (B indicates 50 < [fold] ≤ 500) | > 1000 nM
CC(C)c1cnn2c(NCc3ccccc3-c3cc4cccc(NC(=O)/C=C/CN(C)C)c4[nH]3)nc(N3CCC(Nc4nccs4)C3)nc12 (stereo not drawn) [Compound 216] | > 1000 nM | > 1000 nM | 100 to 1000 nM | B (B indicates 50 < [fold] ≤ 500) | B (B indicates 50 < [fold] ≤ 500) | B (B indicates 50 < [fold] ≤ 500) | > 1000 nM
CO[C@H]1CC[C@H](Nc2nc(NCc3c(C)cccc3-n3ccc4cc(NC(=O)/C=C/CN(C)C)ccc43)n3ncc(C(C)C)c3n2)CC1 [Compound 140] | > 1000 nM | > 1000 nM | 100 to 1000 nM | B (B indicates 50 < [fold] ≤ 500) | B (B indicates 50 < [fold] ≤ 500) | B (B indicates 50 < [fold] ≤ 500) | > 1000 nM
CO[C@H]1CC[C@H](Nc2nc(NCc3c(C)cccc3-c3cc4cccc(NC(=O)/C=C/CN(C)C)c4[nH]3)n3ncc(C(C)C)c3n2)CC1 [Compound 129] | > 1000 nM | > 1000 nM | 100 to 1000 nM | B (B indicates 50 < [fold] ≤ 500) | B (B indicates 50 < [fold] ≤ 500) | B (B indicates 50 < [fold] ≤ 500) | > 1000 nM
CO[C@H]1CC[C@H](Nc2nc(NCc3ccccc3-c3nccc4cc(NC(=O)/C=C/CN5CCCCC5)ccc34)n3ncc(C(C)C)c3n2)CC1 [Compound 155] | > 1000 nM | > 1000 nM | < 100 nM | A (A indicates [fold] > 500) | A (A indicates [fold] > 500) | A (A indicates [fold] > 500) | > 1000 nM
CO[C@H]1CNCC[C@@H]1CNc1nc(NCc2ccccc2-c2nccc3cc(NC(=O)/C=C/CN(C)C)ccc23)n2ncc(C(C)C)c2n1 [Compound 131] | > 1000 nM | > 1000 nM | < 100 nM | A (A indicates [fold] > 500) | A (A indicates [fold] > 500) | A (A indicates [fold] > 500) | > 1000 nM
C=C(F)C(=O)Nc1ccc2c(-c3ccccc3CNc3nc(N[C@H]4CC[C@H](CS(=O)(=O)NC)CC4)nc4c(C(C)C)cnn34)nccc2c1 [Compound 143] | > 1000 nM | > 1000 nM | 100 to 1000 nM | B (B indicates 50 < [fold] ≤ 500) | B (B indicates 50 < [fold] ≤ 500) | B (B indicates 50 < [fold] ≤ 500) | > 1000 nM
C=C(F)C(=O)Nc1ccc2c(-c3ccccc3CNc3nc(NC[C@H]4CNCCO4)nc4c(C(C)C)cnn34)nccc2c1 [Compound 148] | > 1000 nM | > 1000 nM | < 100 nM | B (B indicates 50 < [fold] ≤ 500) | B (B indicates 50 < [fold] ≤ 500) | B (B indicates 50 < [fold] ≤ 500) | > 1000 nM
CO[C@H]1CC[C@H](Nc2cc(NCc3ccccc3-c3nccc4cc(NC(=O)/C=C/CN(C)C)ccc34)n3ncc(C(C)C)c3n2)CC1 [Compound 132] | > 1000 nM | > 1000 nM | < 100 nM | A (A indicates [fold] > 500) | A (A indicates [fold] > 500) | A (A indicates [fold] > 500) | > 1000 nM
CC(C)c1cnn2c(NCc3ccccc3-c3nccc4cc(NC(=O)/C=C/CN(C)C)ccc34)nc(O[C@@H]3CCCNC3)nc12 [Compound 152] | > 1000 nM | > 1000 nM | < 100 nM | A (A indicates [fold] > 500) | A (A indicates [fold] > 500) | A (A indicates [fold] > 500) | > 1000 nM
COC[C@H]1CC[C@H](Nc2nc(NCc3ccccc3-c3nccc4cc(NC(=O)/C=C/CN(C)C)ccc34)n3ncc(C(C)C)c3n2)CC1 [Compound 142] | > 1000 nM | > 1000 nM | < 100 nM | A (A indicates [fold] > 500) | A (A indicates [fold] > 500) | A (A indicates [fold] > 500) | > 1000 nM
C=C(F)C(=O)Nc1cccc2cc(-c3cccc(C)c3CNc3nc(NCC4CNCCO4)nc4c(C(C)C)cnn34)[nH]c12 (stereo not drawn) [Compound 141] | > 1000 nM | > 1000 nM | < 100 nM | A (A indicates [fold] > 500) | A (A indicates [fold] > 500) | A (A indicates [fold] > 500) | > 1000 nM
COC1CCC(CNc2nc(NCc3ccccc3-c3nccc4cc(NC(=O)/C=C/CN(C)C)ccc34)n3ncc(C(C)C)c3n2)CC1 (stereo not drawn) [Compound 136] | > 1000 nM | > 1000 nM | 100 to 1000 nM | B (B indicates 50 < [fold] ≤ 500) | B (B indicates 50 < [fold] ≤ 500) | B (B indicates 50 < [fold] ≤ 500) | > 1000 nM
Cc1cccc(-c2cc3cccc(NC(=O)/C=C/CN(C)C)c3[nH]2)c1CNc1nc(NCC2CCNCC2)nc2c(C(C)C)cnn12 [Compound 139] | > 1000 nM | > 1000 nM | < 100 nM | A (A indicates [fold] > 500) | A (A indicates [fold] > 500) | A (A indicates [fold] > 500) | > 1000 nM
